Some test systems named below: MDA-MB-435; Malme-3M; HL-60; MCF7; SK-MEL-5; OVCAR-3; SF-268; SF-539; UACC-257; RXF 393; PC-3; EKVX; HT-29; BT-549; HCT-15; OVCAR-8; IGROV-1; SF-295; MOLT-4; HCC 2998.
Holding throughout (test): NCI anticancer screen, dose series, 48 h

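Exposure lasted 48 hours, with cells grown in 96-well plates and compounds tested at five concentrations. GI50: concentration for 50% inhibition of growth.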 Calls of active or inactive are those of the source. Rule as the data show it: active = GI50 up to about 1.1 µM and inactive = higher.

Regarding `Cc1ccc(/N=N/c2c(O)c3ccccc3[nH]c2=O)c(S(=O)(=O)N(C)C)c1`, the GI50 in the experiment on MDA-MB-435, in the experiment on Malme-3M, in the experiment with HL-60, with MCF7, in the experiment on SK-MEL-5 and in the experiment on OVCAR-3 was > 100 µM (inactive) each time. The GI50 with SF-268, with SF-539, in the experiment with UACC-257, with RXF 393, in the experiment on PC-3 and with EKVX was > 100 µM (inactive) in each case. Also, the GI50 is > 100 µM (inactive) in the experiment with HT-29; > 100 µM (inactive) with BT-549; more than 100 µM in the experiment on HCT-15; > 100 µM (inactive) in the experiment with OVCAR-8; > 100 µM (inactive) in the experiment on IGROV-1; > 100 µM (inactive) in the experiment on SF-295.

As to `CO[P@@]1(=O)O[C@@H](c2ccccc2)[C@H](O)[C@]1(O)c1ccccc1`, the GI50 in the experiment on MDA-MB-435, in the experiment with Malme-3M, in the experiment on HL-60, with MCF7, in the experiment on SK-MEL-5 and in the experiment with OVCAR-3 was > 100 µM (inactive) throughout. Besides, the GI50 with SF-268 was > 100 µM (inactive); in the experiment on SF-539 it was > 100 µM (inactive); in the experiment with UACC-257 it was > 100 µM (inactive); in the experiment with RXF 393, > 100 µM (inactive); in the experiment on PC-3 it was > 100 µM (inactive); in the experiment on EKVX, 24.9 µM (inactive). In addition, the GI50 with HT-29 was 34 µM (inactive); in the experiment with MOLT-4 it was > 100 µM (inactive); with BT-549 it was > 100 µM (inactive); with HCT-15, more than 100 µM; with OVCAR-8 it was > 100 µM (inactive); in the experiment on IGROV-1, > 100 µM (inactive). The GI50 in the experiment with SF-295 was > 100 µM (inactive).

In the case of `N=C(N)C1CN(CCc2c[nH]c3ccccc23)C(=O)NC1=O` (stereo unspecified), the GI50 in the experiment with MDA-MB-435, with Malme-3M, in the experiment with HL-60, in the experiment with MCF7, in the experiment on SK-MEL-5 and with OVCAR-3 was > 100 µM (inactive) each time. The GI50 in the experiment with SF-268, in the experiment on UACC-257, in the experiment with PC-3, with EKVX, with HT-29 and with MOLT-4 was > 100 µM (inactive) in each case. Further, the GI50 is > 100 µM (inactive) with BT-549; more than 100 µM with HCT-15; > 100 µM (inactive) in the experiment on OVCAR-8; > 100 µM (inactive) in the experiment with IGROV-1; > 100 µM (inactive) with SF-295; > 100 µM (inactive) in the experiment with HCC 2998.

As to `C=C1C(=O)C2=C[C@H]1C[C@H](O)C(=O)[C@]1(C)CCCC(C)(C)[C@H]1C[C@H]2O`, the GI50 in the experiment with MDA-MB-435 is 2.65 µM (inactive); in the experiment on Malme-3M it was 0.83 µM (active); with HL-60, 0.237 µM (active); in the experiment with MCF7 it was 0.388 µM (active); with OVCAR-3 it was 2.02 µM (inactive); in the experiment with SF-268 it was 4.38 µM (inactive). For the same compound, the GI50 with SF-539 is 1.33 µM (inactive); with UACC-257, 1.86 µM (inactive); in the experiment with RXF 393 it was 0.315 µM (active); in the experiment on PC-3, 1.92 µM (inactive); in the experiment on EKVX, 1.73 µM (inactive); with HT-29, 1.47 µM (inactive). The GI50 was 0.979 µM (active) in the experiment with MOLT-4; 2.16 µM (inactive) in the experiment with BT-549; 0.406 µM in the experiment on HCT-15; 2.33 µM (inactive) with OVCAR-8; 3.6 µM (inactive) in the experiment with IGROV-1; 7.94 µM (inactive) in the experiment with SF-295.

As for `CC[C@H](C)C1=C(O)[N@+]2([O-])Oc3ccc(-c4c(O)c(O)c(-c5ccc(O)cc5)c(OC(C)=O)c4OC(C)=O)cc3O[C@]2([C@@H](C)CC)C(=O)N1O`, the GI50 with MDA-MB-435 is 28.1 µM (inactive); in the experiment with Malme-3M, 21.3 µM (inactive); in the experiment with HL-60, 17.7 µM (inactive); in the experiment on MCF7, 18.7 µM (inactive); in the experiment with SK-MEL-5 it was 19 µM (inactive); in the experiment on OVCAR-3, 19.8 µM (inactive). Also, the GI50 was 27.5 µM (inactive) in the experiment on SF-268; 18 µM (inactive) in the experiment on SF-539; > 50 µM (inactive) in the experiment on UACC-257; > 50 µM (inactive) in the experiment with RXF 393; 22.2 µM (inactive) with PC-3; > 50 µM (inactive) in the experiment on EKVX. For the same compound, the GI50 with HT-29 was 15.7 µM (inactive); with MOLT-4, 16.3 µM (inactive); in the experiment on BT-549, 25.6 µM (inactive); in the experiment on HCT-15, 17 µM; in the experiment on OVCAR-8, 27 µM (inactive); with IGROV-1, 6.4 µM (inactive). Also, in the experiment on SF-295, the GI50 was 24.8 µM (inactive).

Turning to `Cc1ccc(C(C)C)c(OCC(=O)N/N=C/c2c[nH]c3ccc(Br)cc23)c1`, the GI50 with MDA-MB-435 was 0.904 µM (active); with Malme-3M, 6.3 µM (inactive); in the experiment on HL-60, 2.37 µM (inactive); in the experiment on MCF7, 0.45 µM (active); in the experiment with SK-MEL-5 it was 1.38 µM (inactive); in the experiment on OVCAR-3 it was 2.19 µM (inactive). In addition, the GI50 in the experiment on SF-268 is 7.85 µM (inactive); in the experiment with SF-539, 1.72 µM (inactive); in the experiment with UACC-257, 2.87 µM (inactive); in the experiment on RXF 393, 1.37 µM (inactive); in the experiment with PC-3, 0.625 µM (active); in the experiment with EKVX it was 2.86 µM (inactive). For the same compound, the GI50 with HT-29 is 2.11 µM (inactive); in the experiment with MOLT-4 it was 3.3 µM (inactive); in the experiment with BT-549, 4.99 µM (inactive); with HCT-15, 2.1 µM; in the experiment with OVCAR-8 it was 3.95 µM (inactive); with IGROV-1 it was 2 µM (inactive). The GI50 in the experiment on SF-295 is 2.45 µM (inactive).

Regarding `S=C(N/N=C/c1ccccn1)Nc1ccc(Cl)cc1`, the GI50 was 0.373 µM (active) in the experiment on MDA-MB-435; 0.145 µM (active) in the experiment on Malme-3M; 0.0317 µM (active) in the experiment with HL-60; 0.0489 µM (active) in the experiment with MCF7; 0.11 µM (active) in the experiment on SK-MEL-5; < 0.01 µM (active) with OVCAR-3. Further, the GI50 in the experiment with SF-268 is 0.05 µM (active); with SF-539, 0.364 µM (active); in the experiment on UACC-257, 0.04 µM (active); in the experiment with PC-3, 0.0424 µM (active); with EKVX it was 0.0682 µM (active); with HT-29, 0.0426 µM (active). In addition, the GI50 with MOLT-4 was < 0.01 µM (active); in the experiment with BT-549, 0.233 µM (active); in the experiment on HCT-15, 0.0398 µM; in the experiment with OVCAR-8, 0.0333 µM (active); in the experiment on IGROV-1, 0.0933 µM (active); with SF-295, 0.181 µM (active). The GI50 in the experiment with HCC 2998 was 0.59 µM (active).

Consider `CC1CCCc2c(-c3ccc(Cl)cc3)nc(N)c(C#N)c21` (stereo unspecified), for which the GI50 was 30.1 µM (inactive) in the experiment with MDA-MB-435; 24.4 µM (inactive) in the experiment on Malme-3M; 22.7 µM (inactive) in the experiment on HL-60; 29 µM (inactive) with MCF7; 18.3 µM (inactive) in the experiment with SK-MEL-5; 29.5 µM (inactive) in the experiment on OVCAR-3. For the same compound, the GI50 in the experiment with SF-268 is 69.3 µM (inactive); with SF-539, 25.5 µM (inactive); in the experiment on UACC-257 it was 27.7 µM (inactive); in the experiment on RXF 393, 27.2 µM (inactive); in the experiment on PC-3 it was 21.6 µM (inactive); in the experiment with EKVX, 18.5 µM (inactive). Also, the GI50 with HT-29 is 30.6 µM (inactive); in the experiment on MOLT-4 it was 20 µM (inactive); in the experiment on BT-549, 20.2 µM (inactive); in the experiment on HCT-15, 31 µM; in the experiment on OVCAR-8, 24.6 µM (inactive); in the experiment on IGROV-1 it was 19.6 µM (inactive).

With `CCOC(=O)c1cc2c3c(c(C(C)=O)c(O)c2[nH]1)N(CC(C)CC)CC3` (stereo unspecified), the GI50 is 44.3 µM (inactive) in the experiment with MDA-MB-435; 21.4 µM (inactive) in the experiment on Malme-3M; 28.8 µM (inactive) with HL-60; > 100 µM (inactive) in the experiment on MCF7; 35 µM (inactive) with SF-268; 70 µM (inactive) in the experiment with SF-539. Moreover, the GI50 was 68.7 µM (inactive) in the experiment on UACC-257; 34.6 µM (inactive) in the experiment with RXF 393; 66.8 µM (inactive) in the experiment with PC-3; 38.9 µM (inactive) in the experiment on EKVX; > 100 µM (inactive) in the experiment on HT-29; 26.3 µM (inactive) in the experiment on MOLT-4. Further, the GI50 with BT-549 was 45.5 µM (inactive); with HCT-15, 70.3 µM; in the experiment on OVCAR-8, 61.7 µM (inactive); in the experiment on IGROV-1, > 100 µM (inactive); in the experiment on SF-295 it was 45 µM (inactive).

In the case of `CN1CCN2CCN(C)CCN(CC1)CC2`, the GI50 in the experiment with MDA-MB-435, in the experiment with HL-60, in the experiment with MCF7, with SK-MEL-5, with OVCAR-3 and in the experiment with SF-268 was > 100 µM (inactive) in each case. For the same compound, the GI50 in the experiment on SF-539, with UACC-257, in the experiment with RXF 393, with PC-3, with EKVX and in the experiment on HT-29 was > 100 µM (inactive) throughout. Also, the GI50 is > 100 µM (inactive) with MOLT-4; > 100 µM (inactive) in the experiment on BT-549; more than 100 µM with HCT-15; > 100 µM (inactive) in the experiment on OVCAR-8; > 100 µM (inactive) in the experiment on IGROV-1; > 100 µM (inactive) with SF-295.

As to `C=C=C(C)C(=O)N(C(C)C)C(C)C`, the GI50 in the experiment on MDA-MB-435, in the experiment with Malme-3M, with HL-60, with MCF7, in the experiment on SK-MEL-5 and in the experiment with OVCAR-3 was > 100 µM (inactive) throughout. Moreover, the GI50 with SF-268, in the experiment on UACC-257, with PC-3, with EKVX, in the experiment with HT-29 and with MOLT-4 was > 100 µM (inactive) throughout. Besides, the GI50 was > 100 µM (inactive) in the experiment on BT-549; more than 100 µM in the experiment with HCT-15; > 100 µM (inactive) in the experiment with OVCAR-8; > 100 µM (inactive) with IGROV-1; > 100 µM (inactive) in the experiment with SF-295; > 100 µM (inactive) in the experiment with HCC 2998.

The record behind these values is ChEMBL document CHEMBL1201862, “PubChem BioAssay data set” (2004).
